Where a name gives a salt, the structure may show the parent alone.
Key:
[1] = target: T1, enucleated ileum of a guinea pig (Cavia porcellus, UniProt P31389); test: Antihistamine activity test in vitro (enucleated guinea pig ileum, histamine retraction, pA2 by Van Rossam method); conditions: 10^-6 g/ml test compound, 5 minutes before histamine, 36° C.
T1 construct: the tissue of ileum is cut to a length of 2.5 to 3.0 cm and suspended in an organ bath; from tissue; host or cells: isolated ileum from the ileocecal region of male guinea pig
Protocol: As to the test method for determining antihistamine activity of a compound in vitro, a method of using an enucleated ileum of a guinea pig is generally accepted.
A male guinea pig having 300 to 500 g body weight is killed by blood letting. An ileum having a length of 15 cm being enculeated from the ileocecal region is dipped into Tyrode's solution (which is prepared from […], 0.2 g of KCl, 0.2 g of CaCl2, 1.0 g of glucose, 1.0 g of NaHCO3, 0.065 g of NaHPO4.2H2 O and 0.2135 g of MgCl2.6H2 O to make 1000 ml in total volume by adding water). Then the tissue of ileum is cut to a length of 2.5 to 3.0 cm and suspended in an organ bath filled with 30 ml of Tyrode's solution. The organ bath is kept at a temperature of 36° C. and a mixed gas consisting of 5% of CO2 and 95% of O2 is blown into the bath. 10 Minutes after the blowing, 10^-6 M of histamine is added to the bath to examine the sensitivity of the tissue and a reaction curve (control) with respect to the dosage of histamine is obtained. After the dosage of histamine-reaction curve (control) becomes constant, 10^-6 g/ml of a compound to be tested is added to the bath and further histamine is added 5 minutes later to obtain a dosage-reaction curve. Retraction of the ileum is recorded on a pen-recorder through an isotonic transducer [TD-112S manufactured by Nihon Koden]. Antihistamine activity of the test compound is determined as pA2 value by the "Van Rossam" method [J. M. Van Rossam; Arch. Inst. Pharmacodyn., 143, 299 (1963)] wherein the maximum retraction of ileum caused by histamine shown in the control curve is 100%.

[2] = Halothane anesthesia increasing activity (righting reflex); format: in vivo, mouse (male, ddy-strain); conditions: oral; for Time (minutes) between introduction of anesthesia and waking: 8 mg/kg, 1 hour before 4% Halothane
Protocol: Male mice of ddy-strain having about 20 g body weight are used. One test group consists of 10 mice. An aqueous Gummi Arabicum suspension of test compound (80 mg of a compound to be tested and 1 g of Gummi Arabicum/100 ml of physiological NaCl solution) is administered orally to each mouse at the dosage of 8 mg of test compound/kg body. One hour after the administration, each mouse is placed in a gas respiration chamber (13×13×24 cm) and oxygen gas containing 4% of Halothane [2-bromo-2-chloro-1,1,1-trifluoroethane] is blown into the chamber at the velocity of 2 l/min for 3 minutes. A mouse anaesthetized is taken out from the chamber and the time between the introduction of anesthesia to waking is measured by righting reflex as the index. To mice of the control group, 1% Gummi Arabicum aqueous physiological solution is orally administered at the dosage of 0.1 ml/10 g body. [Reference: M. J. Turnbull and J. W. Watkins: Br. J. Pharmac., 58, 27-35 (1976)]
Same procedures as mentioned in (II)-(A) are employed, except that the amount of test compound to be orally administered is changed in 4 steps at the dosage of 0.5 mg/kg, 1 mg/kg, 2 mg/kg and 4 mg/kg respectively to measure the relationship between the dosage and degree of strength of anesthesia increasing activity.

[3] = Hexabarbital sleep increasing activity (righting reflex); format: in vivo, mouse (male, ddy-strain); conditions: oral, Hexabarbital Na 70 mg/kg i.p.
Protocol: Male mice of ddy-strain having 20 to 25 g body weight are starved for 24 hours. One test group consists of 10 mice. An aqueous Gummi Arabicum suspension of test compound (0.05 g of test compound and 1 g of Gummi Arabicum/100 ml of physiological NaCl solution) is administered orally at the dosage mentioned in the Table 4. One hour after the administration 0.7% of Hexabarbitol.Na-salt is intraperitonerally administered at the dosage of 70 mg/kg body weight. The time between the introduction of sleep to waking is measured by righting reflex as the index. [Reference: A. M. Hjort, De E. J. Beer and D. W. Fassett; J. Pharmac., Exptl.

[4] = Activity for inhibiting fighting behavior of mouse isolated singly for a long period of time; format: in vivo, mouse (male, ddy-strain); conditions: positive if fighting no longer than 5 seconds in a minute, range in parentheses, read-out: ED50 (inhibition of fighting behavior)
Protocol: Individual male mice of ddy-strain having 15 to 20 g of body weight are breeded separately in respective cages for 1 month. One test group consists of 10 pairs of mice. The pairs of mice are selected so that when one mouse is taken into the home cage of another, the two mice fight together continuously for over 30 seconds. ED50 values are calculated by administering the respective test compounds to each test groups of mice. Activity for inhibiting fighting behavior of the test compound is determined as positive in case the administered mice only continue the fighting for no longer than 5 seconds in a minute. When the mice continue the fighting over 5 seconds they are forced to separate for the purpose of reducing the number of injured mice. [Reference: C. Y. Yen, R. L. Stanger and N. Millman: Arch. Int. Pharmacodyn., 123, 179 (1959)]

[5] = Analgetic activity (acetic acid writhing); format: in vivo, mouse (male, ddy-strain); conditions: Mus musculus, 50 min; oral, 50 minutes before acetic acid i.p.; range in parentheses; read-out: ED50 (analgetic activity)
Protocol: Male mice of ddy-strain having 15-23 g of body weight are used. One test group consists of 10 mice. The compound to be tested is administered orally by procedures similar to the method mentioned in (II). Fifty minutes after the administration, 0.1 ml of 0.6% acetic acid aqueous solution/10 g body weight is injected intraperitoneally. In case of the mice administered orally with the reference compound (Haloperidol), the injection is made 110 minutes after the administration. The number of writhings shown after 10 minutes is counted for 10 minutes and the ED50 value of respective compounds is calculated in comparison with the number of writhings shown by control group. [Reference: R. Koster, M. Anderson and E. I. Debeer: Fed. Proc., 18, 412, (1959)]

in vivo = conditions: mouse
Protocol: Mice of ddy-strain having 20-22 g of body weight are used. One test group consists of 10 mice.
Oral administration: Compound to be tested is suspended in 1% Gummi Arabicum physiological NaCl aqueous solution.
Intravenuous administration: Compound to be tested is dissolved in 50% propyleneglycol aqueous solution.

[6] = antihistamic effect, literature value; cited from earlier work

T1 sequence (P31389 whole entry): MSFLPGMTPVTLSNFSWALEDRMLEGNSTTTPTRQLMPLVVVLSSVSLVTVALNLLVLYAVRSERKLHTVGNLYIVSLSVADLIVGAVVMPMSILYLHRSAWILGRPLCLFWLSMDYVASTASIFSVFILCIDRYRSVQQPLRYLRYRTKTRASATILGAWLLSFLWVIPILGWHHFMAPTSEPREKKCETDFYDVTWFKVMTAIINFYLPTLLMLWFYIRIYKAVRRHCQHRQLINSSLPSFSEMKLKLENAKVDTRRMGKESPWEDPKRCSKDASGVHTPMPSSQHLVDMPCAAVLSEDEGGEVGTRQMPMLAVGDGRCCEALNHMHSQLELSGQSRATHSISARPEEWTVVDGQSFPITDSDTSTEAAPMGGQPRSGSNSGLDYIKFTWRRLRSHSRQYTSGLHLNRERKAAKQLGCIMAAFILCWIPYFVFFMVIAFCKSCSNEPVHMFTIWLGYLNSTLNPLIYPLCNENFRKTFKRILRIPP

Compound | Kb [1] | Anesthesia increasing activity ([2]; 0.5 mg/kg) | Anesthesia increasing activity ([2]; 1 mg/kg) | Anesthesia increasing activity ([2]; 2 mg/kg) | Anesthesia increasing activity ([2]; 4 mg/kg) | Time (minutes) between introduction of anesthesia and waking [2] | Sleep time (min.) [Mean ± SD] ([3]; 0.5 mg/kg) | Sleep time (min.) [Mean ± SD] ([3]; 1.0 mg/kg) | Sleep time (min.) [Mean ± SD] ([3]; 2.0 mg/kg) | Sleep time (min.) [Mean ± SD] ([3]; 4 mg/kg) | Sleep time (min.) [Mean ± SD] ([3]; 8 mg/kg) | ED50 [4] | ED50 [5] | LD50 (in vivo; iv, female mice) | LD50 (in vivo; iv, male mice) | LD50 (in vivo; po, female mice) | LD50 (in vivo; po, male mice) | pA2 [6]
O=C1CCc2ccc(OCCCN3CCN(c4ccccc4)CC3)cc2N1 [Compound 6, 7-[3-(4-Phenylpiperazinyl)propoxy]-3,4-dihydrocarbostyril dihydrochloride] | 0.457 nM | 8.2 ± 2.6 min | 10.3 ± 3.3 min | 12.1 ± 4.2 min | 16.6 ± 5.1 min | 16.8 ± 6.2 min | 43.76 ± 6.09 min | 51.24 ± 11.75 min | 54.11 ± 7.80 min | 65.13 ± 11.59 min | 85.83 ± 12.24 min | 0.7 mg/kg | 2.31 mg/kg | 250 mg/kg | 240 mg/kg | 890 mg/kg | 920 mg/kg | 
O=c1ccc2ccc(OCCCN3CCN(c4ccccc4)CC3)cc2[nH]1 [Compound 37, 7-[3-(4-Phenylpiperazinyl)propoxy]carbostyril] | 0.295 nM |  |  |  |  | 13.1 ± 6.0 min |  |  |  |  |  | 0.78 mg/kg | 1.52 mg/kg |  |  |  |  | 
CC(C)(C)NCC(O)COc1cccc2c1CCC(=O)N2 (stereo not shown) [5-(3-tert-butylamino-2-hydroxy)propoxy-3,4-dihydrocarbostyril hydrochloride] |  |  |  |  |  |  |  |  |  |  |  |  |  |  |  |  |  | 5.02
